Laboratory results taken from patent US11582970B2, “2-aminoimidazole-phenyl derivatives useful for controlling microbial growth” (NORTH CAROLINA STATE UNIVERSITY, priority 2017, dated 2023).

Tests used:
Assay type in all cases: cell-based
A. baumannii AB5075 = assay: MIC of carbapenems in presence and absence of 2-aminoimidazole compounds; conditions: Acinetobacter baumannii, no 2-AI compound (None), read-out: MIC of meropenem
Excerpt: (§1) The minimal inhibitory concentration (MIC) values of imipenem (I); meropenem (M) and doripenem (D) in the presence and absence of 2-aminoimidazole compounds are provided in Table 1. The concentration of each compound used in μM in the MIC assay is shown in parentheses.

[1] = system: A. baumannii ATCC BAA-1605; assay: as above; conditions: Acinetobacter baumannii, no 2-AI compound (None), read-out: MIC of meropenem
Excerpt: as §1

[2] = system: K. pneumoniae ATCC BAA-1705; assay: as above; conditions: Klebsiella pneumoniae, no 2-AI compound (None), read-out: MIC of meropenem
Excerpt: as §1

[3] = system: K. pneumoniae ATCC BAA-2146; assay: as above; conditions: Klebsiella pneumoniae, no 2-AI compound (None), read-out: MIC of meropenem
Excerpt: as §1

A. baumannii (Ab) AR# 33 = assay: MIC of meropenem in combination with compound, CDC carbapenem resistant strain; conditions: Acinetobacter baumannii, no compound (None), read-out: Minimum Inhibitory Concentration of Meropenem
Protocol: (§2) EXAMPLE 2: Six compounds were assessed for their activity in combination with meropenem against carbapenem resistant strains of A. baumannii (Ab), K. pneumoniae (Kp), and E. coli acquired from the Center for Disease Control (CDC). AR #—assigned AR-BANK number from the CDC.

A. baumannii (Ab) AR# 35 = assay: as above; conditions: Acinetobacter baumannii, no compound (None), read-out: Minimum Inhibitory Concentration of Meropenem
Protocol: as §2

A. baumannii (Ab) AR# 36 = assay: as above; conditions: Acinetobacter baumannii, no compound (None), read-out: Minimum Inhibitory Concentration of Meropenem
Protocol: as §2

A. baumannii (Ab) AR# 37 = assay: as above; conditions: Acinetobacter baumannii, no compound (None), read-out: Minimum Inhibitory Concentration of Meropenem
Protocol: as §2

A. baumannii (Ab) AR# 45 = assay: as above; conditions: Acinetobacter baumannii, no compound (None), read-out: Minimum Inhibitory Concentration of Meropenem
Protocol: as §2

A. baumannii (Ab) AR# 52 = assay: as above; conditions: Acinetobacter baumannii, no compound (None), read-out: Minimum Inhibitory Concentration of Meropenem
Protocol: as §2

A. baumannii (Ab) AR# 56 = assay: as above; conditions: Acinetobacter baumannii, no compound (None), read-out: Minimum Inhibitory Concentration of Meropenem
Protocol: as §2

A. baumannii (Ab) AR# 63 = assay: as above; conditions: Acinetobacter baumannii, no compound (None), read-out: Minimum Inhibitory Concentration of Meropenem
Protocol: as §2

A. baumannii (Ab) AR# 70 = assay: as above; conditions: Acinetobacter baumannii, no compound (None), read-out: Minimum Inhibitory Concentration of Meropenem
Protocol: as §2

A. baumannii (Ab) AR# 83 = assay: as above; conditions: Acinetobacter baumannii, no compound (None), read-out: Minimum Inhibitory Concentration of Meropenem
Protocol: as §2

A. baumannii (Ab) AR# 88 = assay: as above; conditions: Acinetobacter baumannii, no compound (None), read-out: Minimum Inhibitory Concentration of Meropenem
Protocol: as §2

E. coli AR# 48 = assay: as above; conditions: Escherichia coli, no compound (None), read-out: Minimum Inhibitory Concentration of Meropenem
Protocol: as §2

E. coli AR# 55 = assay: as above; conditions: Escherichia coli, no compound (None), read-out: Minimum Inhibitory Concentration of Meropenem
Protocol: as §2

[4] = system: K. pneumoniae (Kp) AR# 40; assay: as above; conditions: Klebsiella pneumoniae, no compound (None), read-out: Minimum Inhibitory Concentration of Meropenem
Protocol: as §2

[5] = system: K. pneumoniae (Kp) AR# 41; assay: as above; conditions: Klebsiella pneumoniae, no compound (None), read-out: Minimum Inhibitory Concentration of Meropenem
Protocol: as §2

[6] = system: K. pneumoniae (Kp) AR# 68; assay: as above; conditions: Klebsiella pneumoniae, no compound (None), read-out: Minimum Inhibitory Concentration of Meropenem
Protocol: as §2

[7] = system: K. pneumoniae (Kp) AR# 98; assay: as above; conditions: Klebsiella pneumoniae, no compound (None), read-out: Minimum Inhibitory Concentration of Meropenem
Protocol: as §2

- MIC (A. baumannii AB5075): 32 µg/mL
- MIC [1]: 32 µg/mL
- MIC [2]: 64 µg/mL
- MIC [3]: 256 µg/mL
- MIC (A. baumannii (Ab) AR# 33): 128 µg/mL
- MIC (A. baumannii (Ab) AR# 35): 128 µg/mL
- MIC (A. baumannii (Ab) AR# 36): 128 µg/mL
- MIC (A. baumannii (Ab) AR# 37): 256 µg/mL
- MIC (A. baumannii (Ab) AR# 45): 16 µg/mL
- MIC (A. baumannii (Ab) AR# 52): 8 µg/mL
- MIC (A. baumannii (Ab) AR# 56): 32 µg/mL
- MIC (A. baumannii (Ab) AR# 63): 128 µg/mL
- MIC (A. baumannii (Ab) AR# 70): 8 µg/mL
- MIC (A. baumannii (Ab) AR# 83): 256 µg/mL
- MIC (A. baumannii (Ab) AR# 88): 512 µg/mL
- MIC (E. coli AR# 48): 256 µg/mL
- MIC (E. coli AR# 55): 256 µg/mL
- MIC [4]: 1020 µg/mL
- MIC [5]: 64 µg/mL
- MIC [6]: 512 µg/mL
- MIC [7]: 128 µg/mL
SMILES: C[C@@H](O)[C@H]1C(=O)N2C(C(=O)O)=C(S[C@@H]3CN[C@H](C(=O)N(C)C)C3)[C@H](C)[C@H]12 [M, meropenem, reference compound]
